Values of other authors as cited in patent publication US12115220B2, “Oral mucosal carrier and protectant” (Inspired Material Solutions, LLC, priority 2018, dated 2024).
Where two headings read alike, the source gives them in different places.

[1] = 10 mg CBD+10 mg THC in an oral capsule
[2] = after buccal Sativex (10 mg THC+10 mg CBD)

Compound | mean (SD) peak plasma concentration [1] | plasma maximum concentrations (after a 20 mg dose of oral THC) [µg/L] | mean (SD) peak plasma concentration [2] | Time to maximum concentration (Tmax) (after buccal administration) | Time to maximum concentration (Tmax) (after oral administration) | bioavailability (inhaled) | time of peak concentrations postdose (oral absorption) [h]
CCCCCc1cc(O)c2c(c1)OC(C)(C)[C@@H]1CCC(C)=C[C@@H]21 [THC, delta-9-tetrahydrocannabinol] | 6.4 (3.1) μg/L | 4.4 to 11.0 | 6.1 (5.4) μg/L | 2.4 (1.1) h | 1.0 (0.6) h | up to 27% | 1 to 5
C=C(C)[C@@H]1CCC(C)=C[C@H]1c1c(O)cc(CCCCC)cc1O [CBD, cannabidiol] | 2.5 (2.2) μg/L |  | 3.0 (3.1) μg/L | 2.8 (1.3) h | 1.3 (0.8) h |  | 
